Data on four molecules can be found in US8999940B2 (Ipsen Pharma S.A.S., priority 2008, dated 2015).

Each structure is given as a SMILES string.

A word on the Ki: it is the equilibrium dissociation constant of an inhibitor or competing ligand from its target.

A short description of series [1]: Rat plasma half-life assay. Type of series: in vitro ADME. The conditions noted are these: 37° C., LC-MS, read-out: Rat Plasma T½ (converted). On the procedure:
(§1) B. Human and Rat Plasma Half-Life Assay
(§2) 50 μl was removed at various times, like at 0, 1, 2, 3, 4, 8, 24, 32, 48, 56, 72 hours, mixed with 5 μl formic acid and 150 μL acetonitrile in a microcentrifuge tube, vertexed, and centrifuged for 10 minutes at 10 K rpm. The supernatant was transferred to an injection vial and analyzed by LC-MS. The LC-MS system consisted of an API4000 mass spectrometer with an ESI probe. Positive ion mode and full scan detection were used. HPLC separation was carried out on a Luna 3μ. C8 (2), 2×30 mm column with a gradient from 90% A to 90% B in 10 minutes at a flow rate of 0.3 ml/min. Buffer A was 1% formic acid in water and buffer B was 1% formic acid acetonitrile.

Series [2] in a line: Human plasma half-life assay. Type of series: in vitro ADME. The conditions noted are these: 37° C., LC-MS, read-out: Human Plasma T½ (converted). On the procedure: as §1, §2
Series [3] concerns the target T1, human recombinant GIP receptor (Homo sapiens, UniProt P48546).
T1 construct: expressed in transfected cells; host or cells: CHO-K1 clonal cells (membrane preparation)
T1 sequence (P48546 22-466): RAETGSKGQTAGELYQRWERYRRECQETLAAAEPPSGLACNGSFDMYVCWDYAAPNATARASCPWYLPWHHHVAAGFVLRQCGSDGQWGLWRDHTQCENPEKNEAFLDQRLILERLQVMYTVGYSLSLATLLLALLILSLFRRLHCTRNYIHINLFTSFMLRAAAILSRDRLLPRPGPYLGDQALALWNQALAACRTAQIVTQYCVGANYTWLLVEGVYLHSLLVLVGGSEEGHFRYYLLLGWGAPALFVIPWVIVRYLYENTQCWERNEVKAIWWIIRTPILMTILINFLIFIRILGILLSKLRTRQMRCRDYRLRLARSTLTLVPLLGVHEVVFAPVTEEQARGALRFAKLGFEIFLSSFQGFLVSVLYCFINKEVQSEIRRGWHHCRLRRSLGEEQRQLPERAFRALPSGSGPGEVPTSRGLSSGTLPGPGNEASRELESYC
Put plainly: In vitro hGIP receptor binding assay. On the procedure:
A. In Vitro hGIP Receptor Binding Assay […] The incubations were terminated by rapid filtration through GF/C filters (pre-soaked in 0.5% polyethylenimine) using a Brandel filtration manifold. Each tube and filter were then washed three times with 5-ml aliquots of ice-cold buffer.

As to `CC[C@H](C)[C@H](NC(=O)[C@H](CCCCN)NC(=O)[C@H](CC(=O)O)NC(=O)C1(NC(=O)[C@H](C)NC(=O)[C@@H](NC(=O)C2(NC(=O)[C@H](Cc3ccc(O)cc3)NC(=O)[C@H](CC(=O)O)NC(=O)[C@H](CO)NC(=O)[C@@H](NC(=O)[C@H](Cc3ccccc3)NC(=O)[C@@H](NC(=O)CNC(=O)[C@H](CCC(=O)O)NC(=O)C(C)(C)NC(=O)[C@@H](N)Cc3c(C)cc(O)cc3C)[C@@H](C)O)[C@@H](C)CC)CCCC2)[C@@H](C)CC)CCCC1)C(=O)N[C@@H](Cc1c[nH]cn1)C(=O)N[C@@H](CCC(N)=O)C(=O)N[C@@H](CCC(N)=O)C(=O)N[C@@H](CC(=O)O)C(=O)N[C@@H](Cc1ccccc1)C(=O)N[C@H](C(=O)N[C@@H](CC(N)=O)C(=O)N[C@@H](Cc1c[nH]c2ccccc12)C(=O)N[C@@H](CC(C)C)C(=O)N[C@@H](CC(C)C)C(=O)N[C@@H](C)C(=O)N[C@@H](CCC(N)=O)C(=O)N[C@@H](CCCCN)C(=O)NCC(=O)N[C@@H](CCCCN)C(=O)N[C@@H](CCCCN)C(=O)N[C@@H](CC(N)=O)C(=O)N[C@@H](CC(=O)O)C(=O)N[C@@H](Cc1c[nH]c2ccccc12)C(=O)N[C@@H](CCCCN)C(=O)N[C@@H](Cc1c[nH]cn1)C(=O)N[C@@H](CC(N)=O)C(=O)N[C@H](C(=O)N[C@H](C(=O)N[C@@H](CCC(N)=O)C(=O)N[C@@H](Cc1c[nH]cn1)C(=O)O)[C@@H](C)O)[C@@H](C)CC)C(C)C` [Example 54, (2,6Me-Tyr^1, Aib^2, A5c^11, 14, His^43)hGIP(1-43)-OH], the results for the half-life at 0.1 mg/ml in series [1] and in series [2] were 21.5 h and over 50 h, respectively. The Ki in series [3] came to 50.2 nM.

As to `CC[C@H](C)[C@H](NC(=O)[C@H](CCCCN)NC(=O)[C@H](CC(=O)O)NC(=O)[C@H](CCSC)NC(=O)[C@H](C)NC(=O)[C@@H](NC(=O)C1(NC(=O)[C@H](Cc2ccc(O)cc2)NC(=O)[C@H](CC(=O)O)NC(=O)[C@H](CO)NC(=O)[C@@H](NC(=O)[C@H](Cc2ccccc2)NC(=O)[C@@H](NC(=O)CNC(=O)[C@H](CCC(=O)O)NC(=O)C(C)(C)NC(=O)[C@@H](N)Cc2cccc(F)c2)[C@@H](C)O)[C@@H](C)CC)CCCC1)[C@@H](C)CC)C(=O)N[C@@H](Cc1c[nH]cn1)C(=O)N[C@@H](CCC(N)=O)C(=O)N[C@@H](CCC(N)=O)C(=O)N[C@@H](CC(=O)O)C(=O)N[C@@H](Cc1ccccc1)C(=O)N[C@H](C(=O)N[C@@H](CC(N)=O)C(=O)N[C@@H](Cc1c[nH]c2ccccc12)C(=O)N[C@@H](CC(C)C)C(=O)N[C@@H](CC(C)C)C(=O)N[C@@H](C)C(=O)N[C@@H](CCC(N)=O)C(=O)N[C@@H](CCCCN)C(=O)NCC(=O)N[C@@H](CCCCN)C(=O)N[C@@H](CCCCN)C(=O)N[C@@H](CC(N)=O)C(=O)N[C@@H](CC(=O)O)C(=O)N[C@@H](Cc1c[nH]c2ccccc12)C(=O)N[C@@H](CCCCN)C(=O)N[C@@H](Cc1c[nH]cn1)C(=O)N[C@@H](CC(N)=O)C(=O)N[C@H](C(=O)NC1(C(=O)N[C@@H](CCC(N)=O)C(=O)O)CCCC1)[C@@H](C)CC)C(C)C` [Example 41, (3F-Phe^1, Aib^2, A5c^11, 41)hGIP(1-42)-OH], the half-life at 0.1 mg/ml in series [1] is over 66 h; in series [2], 63.6 h. In addition, in series [3], the Ki was determined as 5.43 nM.

Consider `CC[C@H](C)[C@H](NC(=O)[C@H](CCCCN)NC(=O)[C@H](CC(=O)O)NC(=O)[C@H](CCSC)NC(=O)[C@H](C)NC(=O)[C@@H](NC(=O)C1(NC(=O)[C@H](Cc2ccc(O)cc2)NC(=O)[C@H](CC(=O)O)NC(=O)[C@H](CO)NC(=O)[C@@H](NC(=O)[C@H](Cc2ccccc2)NC(=O)[C@@H](NC(=O)CNC(=O)[C@H](CCC(=O)O)NC(=O)C(C)(C)NC(=O)[C@@H](N)Cc2ccc(C#N)cc2)[C@@H](C)O)[C@@H](C)CC)CCCC1)[C@@H](C)CC)C(=O)N[C@@H](Cc1c[nH]cn1)C(=O)N[C@@H](CCC(N)=O)C(=O)N[C@@H](CCC(N)=O)C(=O)N[C@@H](CC(=O)O)C(=O)N[C@@H](Cc1ccccc1)C(=O)N[C@H](C(=O)N[C@@H](CC(N)=O)C(=O)N[C@@H](Cc1c[nH]c2ccccc12)C(=O)N[C@@H](CC(C)C)C(=O)N[C@@H](CC(C)C)C(=O)N[C@@H](C)C(=O)N[C@@H](CCC(N)=O)C(=O)N[C@@H](CCCCN)C(=O)NCC(=O)N[C@@H](CCCCN)C(=O)N[C@@H](CCCCN)C(=O)N[C@@H](CC(N)=O)C(=O)N[C@@H](CC(=O)O)C(=O)N[C@@H](Cc1c[nH]c2ccccc12)C(=O)N[C@@H](CCCCN)C(=O)N[C@@H](Cc1c[nH]cn1)C(=O)N[C@@H](CC(N)=O)C(=O)N[C@H](C(=O)NC1(C(=O)N[C@@H](CCC(N)=O)C(=O)O)CCCC1)[C@@H](C)CC)C(C)C` [Example 38, (4CN-Phe^1, Aib^2, A5c^11, 41)hGIP(1-42)-OH], for which the half-life at 0.1 mg/ml in series [1] was over 72 h; in series [2] it was 16.4 h. Also, the inhibition constant (Ki) in series [3] was 14.4 nM.

Consider `CCCC[C@H](NC(=O)[C@H](C)NC(=O)[C@@H](NC(=O)C1(NC(=O)[C@H](Cc2ccc(O)cc2)NC(=O)[C@H](CC(=O)O)NC(=O)[C@H](CO)NC(=O)[C@@H](NC(=O)[C@H](Cc2ccccc2)NC(=O)[C@@H](NC(=O)CNC(=O)[C@H](CCC(=O)O)NC(=O)C(C)(C)NC(=O)[C@@H](N)Cc2cc(Br)c(O)c(Br)c2)[C@@H](C)O)[C@@H](C)CC)CCCC1)[C@@H](C)CC)C(=O)N[C@@H](CC(=O)O)C(=O)N[C@@H](CCCCN)C(=O)N[C@H](C(=O)N[C@@H](Cc1c[nH]cn1)C(=O)N[C@@H](CCC(N)=O)C(=O)N[C@@H](CCC(N)=O)C(=O)N[C@@H](CC(=O)O)C(=O)N[C@@H](Cc1ccccc1)C(=O)N[C@H](C(=O)N[C@@H](CC(N)=O)C(=O)N[C@@H](Cc1c[nH]c2ccccc12)C(=O)N[C@@H](CC(C)C)C(=O)N[C@@H](CC(C)C)C(=O)N[C@@H](C)C(=O)N[C@@H](CCC(N)=O)C(=O)N[C@@H](CCCCN)C(=O)NCC(=O)N[C@@H](CCCCN)C(=O)N[C@@H](CCCCN)C(=O)N[C@@H](CC(N)=O)C(=O)N[C@@H](CC(=O)O)C(=O)N[C@@H](Cc1c[nH]c2ccccc12)C(=O)N[C@@H](CCCCN)C(=O)N[C@@H](Cc1c[nH]cn1)C(=O)N[C@@H](CC(N)=O)C(=O)N[C@H](C(=O)N[C@H](C(=O)N[C@@H](CCC(N)=O)C(=O)O)[C@@H](C)O)[C@@H](C)CC)C(C)C)[C@@H](C)CC` [Example 13, (3,5Br-Tyr^1, Aib^2, A5c^11, Nle^14)hGIP(1-42)-OH], for which the half-life at 0.1 mg/ml is 13.1 h in series [1] and 50.6 h in series [2]. Moreover, the Ki in series [3] was determined as 21.8 nM.
